Entries after “also recorded” stand apart in the source; their conditions may differ. Peptide text beside a SMILES is read from it.
What was measured:
Format in all cases: biochemical
[1] = biological target: T1, HDAC1 (Homo sapiens, UniProt Q13547); experiment: HDAC1 inhibition, full IC50 measurement (Reaction Biology; fluorogenic p53 peptide RHKK(Ac)AMC); details: for HDAC1 activity raw data (signal): t1/t2 replicates
T1 construct: purchased Reaction Biology Corporation (assay run by the CRO)
Method in brief: (§1)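 Test peptides were dispensed acoustically with enzyme in 50 mM Tris-HCl pH 8.0, 137 mM NaCl, 2.7 mM KCl, 1 mM MgCl2, 1 mg/ml BSA and 1% DMSO. After adding 50 μM RHKK(Ac)AMC, reactions ran 1 h at 30 °C, then developer was added.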

[2] = biological target: T2, HDAC4 (Homo sapiens, UniProt P56524); experiment: HDAC4 inhibition/binding test (BPS Biosciences HDAC fluorogenic assay kit)
T2 construct: purchased BPS Biosciences
T2 sequence (P56524 whole entry): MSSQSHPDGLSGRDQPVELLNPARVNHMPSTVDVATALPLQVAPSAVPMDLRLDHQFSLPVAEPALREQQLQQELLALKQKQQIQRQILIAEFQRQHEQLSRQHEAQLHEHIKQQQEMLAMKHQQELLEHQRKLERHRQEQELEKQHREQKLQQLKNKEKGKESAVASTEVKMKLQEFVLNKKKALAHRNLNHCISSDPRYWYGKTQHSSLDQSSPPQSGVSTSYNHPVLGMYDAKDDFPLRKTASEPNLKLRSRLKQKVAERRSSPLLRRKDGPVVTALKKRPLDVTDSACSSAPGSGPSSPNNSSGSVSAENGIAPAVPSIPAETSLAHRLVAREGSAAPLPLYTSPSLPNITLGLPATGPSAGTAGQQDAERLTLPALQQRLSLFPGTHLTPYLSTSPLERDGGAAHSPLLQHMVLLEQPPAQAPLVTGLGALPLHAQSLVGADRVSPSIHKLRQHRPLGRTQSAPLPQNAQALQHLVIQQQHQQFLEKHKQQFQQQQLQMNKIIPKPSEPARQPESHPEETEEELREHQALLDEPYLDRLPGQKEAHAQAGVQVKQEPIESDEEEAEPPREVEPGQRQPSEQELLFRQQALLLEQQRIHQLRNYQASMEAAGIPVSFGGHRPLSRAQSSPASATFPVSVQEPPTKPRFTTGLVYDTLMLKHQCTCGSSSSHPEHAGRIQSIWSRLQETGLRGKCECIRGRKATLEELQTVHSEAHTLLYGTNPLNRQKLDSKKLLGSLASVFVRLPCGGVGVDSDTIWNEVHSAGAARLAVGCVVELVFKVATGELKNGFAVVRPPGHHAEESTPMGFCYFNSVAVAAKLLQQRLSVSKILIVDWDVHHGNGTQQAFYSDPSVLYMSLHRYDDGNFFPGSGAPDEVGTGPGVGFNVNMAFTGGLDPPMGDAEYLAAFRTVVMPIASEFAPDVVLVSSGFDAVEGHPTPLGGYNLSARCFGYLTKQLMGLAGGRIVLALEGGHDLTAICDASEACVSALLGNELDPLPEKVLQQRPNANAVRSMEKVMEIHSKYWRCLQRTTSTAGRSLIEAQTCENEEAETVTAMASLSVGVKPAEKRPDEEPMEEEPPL

[3] = biological target: HDAC9 (Homo sapiens, UniProt Q9UKV0); experiment: HDAC9 profiling of SHA anchor and early peptides
Chain of HDAC9 (Q9UKV0 whole entry): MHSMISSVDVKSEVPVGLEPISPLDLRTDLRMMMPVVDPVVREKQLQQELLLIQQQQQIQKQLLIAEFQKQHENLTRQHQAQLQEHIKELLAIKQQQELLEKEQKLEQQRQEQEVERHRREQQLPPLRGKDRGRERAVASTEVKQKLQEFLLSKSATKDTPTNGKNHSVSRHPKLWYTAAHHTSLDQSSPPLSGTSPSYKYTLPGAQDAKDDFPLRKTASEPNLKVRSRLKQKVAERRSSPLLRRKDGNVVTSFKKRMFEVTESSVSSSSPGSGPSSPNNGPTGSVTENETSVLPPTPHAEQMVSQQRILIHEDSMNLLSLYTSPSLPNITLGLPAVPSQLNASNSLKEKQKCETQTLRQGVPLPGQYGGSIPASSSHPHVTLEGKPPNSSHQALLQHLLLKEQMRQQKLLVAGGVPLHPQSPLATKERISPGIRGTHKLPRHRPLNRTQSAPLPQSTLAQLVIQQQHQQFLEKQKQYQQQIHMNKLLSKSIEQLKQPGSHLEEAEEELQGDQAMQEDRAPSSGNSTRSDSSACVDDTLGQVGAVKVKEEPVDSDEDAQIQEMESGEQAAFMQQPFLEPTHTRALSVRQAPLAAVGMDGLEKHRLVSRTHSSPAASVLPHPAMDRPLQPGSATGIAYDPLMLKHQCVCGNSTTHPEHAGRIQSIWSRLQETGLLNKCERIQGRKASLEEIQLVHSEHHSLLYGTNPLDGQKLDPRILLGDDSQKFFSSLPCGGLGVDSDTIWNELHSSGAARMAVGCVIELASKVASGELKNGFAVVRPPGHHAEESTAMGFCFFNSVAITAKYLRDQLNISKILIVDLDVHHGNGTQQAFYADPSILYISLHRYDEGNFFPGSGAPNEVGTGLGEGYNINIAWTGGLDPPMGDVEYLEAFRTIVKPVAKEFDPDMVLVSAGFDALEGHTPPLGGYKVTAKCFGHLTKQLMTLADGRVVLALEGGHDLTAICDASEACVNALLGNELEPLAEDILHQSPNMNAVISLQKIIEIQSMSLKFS

[4] = biological target: T3, HDAC2 (Homo sapiens, UniProt Q92769); experiment: HDAC2 inhibition, full IC50 measurement (Reaction Biology; fluorogenic p53 peptide RHKK(Ac)AMC)
T3 construct: purchased Reaction Biology Corporation (assay run by the CRO)
T3 sequence (Q92769 whole entry): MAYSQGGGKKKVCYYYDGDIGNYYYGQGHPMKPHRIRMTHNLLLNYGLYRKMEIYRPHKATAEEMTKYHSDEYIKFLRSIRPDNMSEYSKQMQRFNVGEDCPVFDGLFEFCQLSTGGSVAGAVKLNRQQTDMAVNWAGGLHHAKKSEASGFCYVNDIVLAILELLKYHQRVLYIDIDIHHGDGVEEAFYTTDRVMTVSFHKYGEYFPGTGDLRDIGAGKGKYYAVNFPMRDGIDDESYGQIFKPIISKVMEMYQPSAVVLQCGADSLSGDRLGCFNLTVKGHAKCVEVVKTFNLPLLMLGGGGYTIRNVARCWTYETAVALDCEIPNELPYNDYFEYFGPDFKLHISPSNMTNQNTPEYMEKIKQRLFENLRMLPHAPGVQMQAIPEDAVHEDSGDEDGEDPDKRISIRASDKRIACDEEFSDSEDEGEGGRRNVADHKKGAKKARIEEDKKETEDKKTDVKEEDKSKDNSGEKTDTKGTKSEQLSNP
Method in brief: as §1

[5] = biological target: HDAC5 (Homo sapiens, UniProt Q9UQL6); experiment: HDAC5 profiling of SHA anchor and early peptides
Chain of HDAC5 (Q9UQL6 whole entry): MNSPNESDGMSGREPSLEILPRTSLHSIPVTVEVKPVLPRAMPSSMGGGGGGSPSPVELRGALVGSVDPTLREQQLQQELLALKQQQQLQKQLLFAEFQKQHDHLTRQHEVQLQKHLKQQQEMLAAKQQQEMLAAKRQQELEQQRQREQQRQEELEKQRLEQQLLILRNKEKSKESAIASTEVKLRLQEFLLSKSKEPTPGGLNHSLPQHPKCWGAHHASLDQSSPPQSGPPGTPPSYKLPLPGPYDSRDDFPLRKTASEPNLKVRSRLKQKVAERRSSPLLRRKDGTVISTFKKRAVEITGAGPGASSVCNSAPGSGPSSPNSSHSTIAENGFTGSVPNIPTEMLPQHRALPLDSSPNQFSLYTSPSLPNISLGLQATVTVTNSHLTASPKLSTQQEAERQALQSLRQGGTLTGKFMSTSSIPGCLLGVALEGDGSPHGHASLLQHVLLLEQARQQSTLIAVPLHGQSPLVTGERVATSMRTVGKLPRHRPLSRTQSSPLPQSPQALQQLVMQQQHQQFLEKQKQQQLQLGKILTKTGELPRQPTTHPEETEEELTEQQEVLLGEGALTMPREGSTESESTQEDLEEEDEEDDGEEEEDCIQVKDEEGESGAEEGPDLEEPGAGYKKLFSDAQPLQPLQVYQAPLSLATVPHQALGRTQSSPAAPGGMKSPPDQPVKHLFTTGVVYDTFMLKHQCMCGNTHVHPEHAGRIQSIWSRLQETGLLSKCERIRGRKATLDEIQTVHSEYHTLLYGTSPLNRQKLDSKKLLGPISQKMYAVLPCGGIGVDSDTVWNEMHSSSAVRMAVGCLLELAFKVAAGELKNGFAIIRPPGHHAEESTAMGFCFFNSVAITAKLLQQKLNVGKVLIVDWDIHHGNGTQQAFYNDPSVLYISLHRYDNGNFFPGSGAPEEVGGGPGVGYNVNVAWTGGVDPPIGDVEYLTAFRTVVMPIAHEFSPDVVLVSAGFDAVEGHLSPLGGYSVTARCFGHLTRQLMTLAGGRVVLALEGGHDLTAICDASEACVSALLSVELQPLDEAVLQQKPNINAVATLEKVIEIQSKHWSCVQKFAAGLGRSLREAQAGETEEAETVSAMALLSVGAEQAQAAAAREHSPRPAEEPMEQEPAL

[6] = biological target: T3, HDAC2; experiment: Initial HDAC2 IC50 estimate (BPS Biosciences HDAC fluorogenic assay kit)
Method in brief: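 Inhibition measured by kit-based fluorogenic HDAC activity assays, with each point in duplicate or triplicate. Values come from a full 1 µM–100 pM series (1:10 steps) or are range estimates from just 20 nM and 200 nM.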

[7] = biological target: T4, HDAC11 (Homo sapiens, UniProt Q96DB2); experiment: HDAC11 profiling of SHA anchor
T4 sequence (Q96DB2 1-347): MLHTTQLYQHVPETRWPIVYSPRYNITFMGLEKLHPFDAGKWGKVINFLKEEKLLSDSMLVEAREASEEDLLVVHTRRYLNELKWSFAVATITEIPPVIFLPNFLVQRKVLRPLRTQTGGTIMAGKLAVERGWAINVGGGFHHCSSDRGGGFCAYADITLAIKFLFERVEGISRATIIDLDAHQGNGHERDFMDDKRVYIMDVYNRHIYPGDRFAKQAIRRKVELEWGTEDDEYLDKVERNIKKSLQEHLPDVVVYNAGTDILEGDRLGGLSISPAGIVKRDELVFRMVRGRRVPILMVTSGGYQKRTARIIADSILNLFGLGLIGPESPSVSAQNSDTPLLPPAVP

[8] = Supplementary Dataset 2, read-out: HDAC2 activity (initial activity)

T1 sequence (Q13547 whole entry): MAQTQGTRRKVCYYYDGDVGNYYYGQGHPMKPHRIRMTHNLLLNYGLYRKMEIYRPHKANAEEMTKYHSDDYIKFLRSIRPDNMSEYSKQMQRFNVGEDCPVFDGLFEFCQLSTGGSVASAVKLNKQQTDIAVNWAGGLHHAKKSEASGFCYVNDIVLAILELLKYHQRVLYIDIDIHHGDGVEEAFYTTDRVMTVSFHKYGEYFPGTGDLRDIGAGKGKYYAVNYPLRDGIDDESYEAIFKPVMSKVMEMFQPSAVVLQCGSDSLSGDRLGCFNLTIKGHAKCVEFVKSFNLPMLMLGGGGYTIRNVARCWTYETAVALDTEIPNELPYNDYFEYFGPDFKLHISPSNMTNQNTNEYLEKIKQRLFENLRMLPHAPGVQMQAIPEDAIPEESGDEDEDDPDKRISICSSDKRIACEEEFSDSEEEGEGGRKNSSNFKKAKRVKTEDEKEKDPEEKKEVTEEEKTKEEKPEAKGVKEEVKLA

`N[C@@H](CCCCCS)C(=O)O` [SHA, 2S-2-amino-7-sulfanylheptanoic acid] was tested, and the “HDAC1 inhibition potency in words” value [1] was “low micro-molar to high nano-molar affinities”, the “HDAC1 raw activity signal” value ([1]; Conc. 1.00E-05 M) was 155805 and the “HDAC1 raw activity signal” value ([1]; Conc. 1.11E-06 M) was 648714. The “HDAC1 raw activity signal” value ([1]; Conc. 1.23E-07 M) was 748850, the “HDAC1 raw activity signal” value ([1]; Conc. 1.37E-08 M) was 768411 and the “HDAC1 raw activity signal” value ([1]; Conc. 1.52E-09 M) was 737474. The “HDAC1 raw activity signal” value ([1]; Conc. 3.33E-06 M) was 525567, the “HDAC1 raw activity signal” value ([1]; Conc. 3.70E-07 M) was 713862 and the “HDAC1 raw activity signal” value ([1]; Conc. 4.12E-08 M) was 763721. For the same compound, the “HDAC1 raw activity signal” value ([1]; Conc. 4.57E-09 M) was 780017, the “HDAC1 raw activity signal” value ([1]; Conc. 5.08E-10 M) was 759317 and the “binding to HDAC4” value [2] was “not detected binding”. The “HDAC4 raw activity signal” value ([2]; Conc. 1.00E-05 M) was 1818034, the “HDAC4 raw activity signal” value ([2]; Conc. 1.11E-06 M) was 1589038 and the “HDAC4 raw activity signal” value ([2]; Conc. 1.23E-07 M) was 1682923. For the same compound, the “HDAC4 raw activity signal” value ([2]; Conc. 1.37E-08 M) was 1569641, the “HDAC4 raw activity signal” value ([2]; Conc. 1.52E-09 M) was 1604062 and the “HDAC4 raw activity signal” value ([2]; Conc. 3.33E-06 M) was 1651123. The “HDAC4 raw activity signal” value ([2]; Conc. 3.70E-07 M) was 1661788, the “HDAC4 raw activity signal” value ([2]; Conc. 4.12E-08 M) was 1863011 and the “HDAC4 raw activity signal” value ([2]; Conc. 4.57E-09 M) was 1554862. For the same compound, the “HDAC4 raw activity signal” value ([2]; Conc. 5.08E-10 M) was 1555289, the “binding to HDAC9” value [3] was “not detected binding; also recorded: no binding” and the “HDAC9 raw activity signal” value ([3]; Conc. 1.00E-05 M) was 866095. The “HDAC9 raw activity signal” value ([3]; Conc. 1.11E-06 M) was 1324190, the “HDAC9 raw activity signal” value ([3]; Conc. 1.23E-07 M) was 1424055 and the “HDAC9 raw activity signal” value ([3]; Conc. 1.37E-08 M) was 1252931. For the same compound, the “HDAC9 raw activity signal” value ([3]; Conc. 1.52E-09 M) was 1327312, the “HDAC9 raw activity signal” value ([3]; Conc. 3.33E-06 M) was 1253108 and the “HDAC9 raw activity signal” value ([3]; Conc. 3.70E-07 M) was 1495255. For the same compound, the “HDAC9 raw activity signal” value ([3]; Conc. 4.12E-08 M) was 1362638, the “HDAC9 raw activity signal” value ([3]; Conc. 4.57E-09 M) was 1400560 and the “HDAC9 raw activity signal” value ([3]; Conc. 5.08E-10 M) was 1258385. For the same compound, the “HDAC2 inhibition potency in words” value [4] was “low micro-molar to high nano-molar affinities”, the “HDAC2 raw activity signal” value ([4]; Conc. 1.00E-05 M) was 210566 and the “HDAC2 raw activity signal” value ([4]; Conc. 1.11E-06 M) was 643731. The “HDAC2 raw activity signal” value ([4]; Conc. 1.23E-07 M) was 728862, the “HDAC2 raw activity signal” value ([4]; Conc. 1.37E-08 M) was 787686 and the “HDAC2 raw activity signal” value ([4]; Conc. 1.52E-09 M) was 708004. For the same compound, the “HDAC2 raw activity signal” value ([4]; Conc. 3.33E-06 M) was 523867, the “HDAC2 raw activity signal” value ([4]; Conc. 3.70E-07 M) was 682189 and the “HDAC2 raw activity signal” value ([4]; Conc. 4.12E-08 M) was 772929. For the same compound, the “HDAC2 raw activity signal” value ([4]; Conc. 4.57E-09 M) was 735698, the “HDAC2 raw activity signal” value ([4]; Conc. 5.08E-10 M) was 743884 and the IC50 ([4]; read-out: HDAC2 IC50) was 5400 nM. For the same compound, the “binding to HDAC5” value [5] was “not detected binding; also recorded: no binding”, the “HDAC5 raw activity signal” value ([5]; Conc. 1.00E-05 M) was 673421 and the “HDAC5 raw activity signal” value ([5]; Conc. 1.11E-06 M) was 815210. For the same compound, the “HDAC5 raw activity signal” value ([5]; Conc. 1.23E-07 M) was 790981, the “HDAC5 raw activity signal” value ([5]; Conc. 1.37E-08 M) was 671078 and the “HDAC5 raw activity signal” value ([5]; Conc. 1.52E-09 M) was 600695. For the same compound, the “HDAC5 raw activity signal” value ([5]; Conc. 3.33E-06 M) was 650638, the “HDAC5 raw activity signal” value ([5]; Conc. 3.70E-07 M) was 757112 and the “HDAC5 raw activity signal” value ([5]; Conc. 4.12E-08 M) was 716396. The “HDAC5 raw activity signal” value ([5]; Conc. 4.57E-09 M) was 610467, the “HDAC5 raw activity signal” value ([5]; Conc. 5.08E-10 M) was 252249 and the IC50 [6, 8] was 5000 nM. The “binding to HDAC11” value [7] was “no binding”, the “HDAC11 raw activity signal” value ([7]; Conc. 1.00E-05 M) was 857709 and the “HDAC11 raw activity signal” value ([7]; Conc. 1.11E-06 M) was 1073570. The “HDAC11 raw activity signal” value ([7]; Conc. 1.23E-07 M) was 1094662, the “HDAC11 raw activity signal” value ([7]; Conc. 1.37E-08 M) was 1209318 and the “HDAC11 raw activity signal” value ([7]; Conc. 1.52E-09 M) was 1051037. For the same compound, the “HDAC11 raw activity signal” value ([7]; Conc. 3.33E-06 M) was 847001, the “HDAC11 raw activity signal” value ([7]; Conc. 3.70E-07 M) was 1077158 and the “HDAC11 raw activity signal” value ([7]; Conc. 4.12E-08 M) was 1064044. For the same compound, the “HDAC11 raw activity signal” value ([7]; Conc. 4.57E-09 M) was 1134026 and the “HDAC11 raw activity signal” value ([7]; Conc. 5.08E-10 M) was 1061165.
In the case of `NCCCC[C@H]1NC(=O)[C@H](CCC(N)=O)NC(=O)[C@H](CCC(=O)O)NC(=O)[C@@H]2CCCN2C(=O)[C@H](CC(N)=O)NC(=O)[C@H](CCCCCS)NC(=O)CNC(=O)[C@H](Cc2c[nH]c3ccccc23)NC1=O` [des1.1.1, SHA-Asn-Pro-Glu-Gln-dLys-Trp-Gly] (HELM PEPTIDE1{E.Q.[dK].W.G.[O=C([C@H](CCCCCS)N[*:1])[*:2]].N.P}$PEPTIDE1,PEPTIDE1,1:R1-8:R2$$$V2.0), the “HDAC1 activity raw data (signal)” value ([1]; peptide conc. 1.00E-05 M, listed as des1.1.1_t1) is reported as 15449, the “HDAC1 activity raw data (signal)” value ([1]; peptide conc. 1.00E-05 M, listed as des1.1.1_t2) is reported as 6031 and the “HDAC1 activity raw data (signal)” value ([1]; peptide conc. 1.11E-06 M, listed as des1.1.1_t1) is reported as 152129. The “HDAC1 activity raw data (signal)” value ([1]; peptide conc. 1.11E-06 M, listed as des1.1.1_t2) was 83277, the “HDAC1 activity raw data (signal)” value ([1]; peptide conc. 1.23E-07 M, listed as des1.1.1_t1) was 509662 and the “HDAC1 activity raw data (signal)” value ([1]; peptide conc. 1.23E-07 M, listed as des1.1.1_t2) was 396625. For the same compound, the “HDAC1 activity raw data (signal)” value ([1]; peptide conc. 1.37E-08 M, listed as des1.1.1_t1) was 648866, the “HDAC1 activity raw data (signal)” value ([1]; peptide conc. 1.37E-08 M, listed as des1.1.1_t2) was 876365 and the “HDAC1 activity raw data (signal)” value ([1]; peptide conc. 1.52E-09 M, listed as des1.1.1_t1) was 760286. The “HDAC1 activity raw data (signal)” value ([1]; peptide conc. 1.52E-09 M, listed as des1.1.1_t2) was 1050479, the “HDAC1 activity raw data (signal)” value ([1]; peptide conc. 3.33E-06 M, listed as des1.1.1_t1) was 53777 and the “HDAC1 activity raw data (signal)” value ([1]; peptide conc. 3.33E-06 M, listed as des1.1.1_t2) was 31360. For the same compound, the “HDAC1 activity raw data (signal)” value ([1]; peptide conc. 3.70E-07 M, listed as des1.1.1_t1) was 243491, the “HDAC1 activity raw data (signal)” value ([1]; peptide conc. 3.70E-07 M, listed as des1.1.1_t2) was 191722 and the “HDAC1 activity raw data (signal)” value ([1]; peptide conc. 4.12E-08 M, listed as des1.1.1_t1) was 677146. The “HDAC1 activity raw data (signal)” value ([1]; peptide conc. 4.12E-08 M, listed as des1.1.1_t2) was 657201, the “HDAC1 activity raw data (signal)” value ([1]; peptide conc. 4.57E-09 M, listed as des1.1.1_t1) was 723834 and the “HDAC1 activity raw data (signal)” value ([1]; peptide conc. 4.57E-09 M, listed as des1.1.1_t2) was 981941. The “HDAC1 activity raw data (signal)” value ([1]; peptide conc. 5.08E-10 M, listed as des1.1.1_t1) was 712167, the “HDAC1 activity raw data (signal)” value ([1]; peptide conc. 5.08E-10 M, listed as des1.1.1_t2) was 1083035 and the “2-Selectivity: fold potency for HDAC2 over HDAC6” value [4] was 0.17 fold. For the same compound, the “HDAC2 activity raw data (signal)” value ([4]; Conc. 1.00E-05 M, t1) was 51389, the “HDAC2 activity raw data (signal)” value ([4]; Conc. 1.11E-06 M, t1) was 176321 and the “HDAC2 activity raw data (signal)” value ([4]; Conc. 1.23E-07 M, t1) was 517115. The “HDAC2 activity raw data (signal)” value ([4]; Conc. 1.23E-07 M, t2) was 516299, the “HDAC2 activity raw data (signal)” value ([4]; Conc. 1.37E-08 M, t1) was 670648 and the “HDAC2 activity raw data (signal)” value ([4]; Conc. 1.37E-08 M, t2) was 890041. The “HDAC2 activity raw data (signal)” value ([4]; Conc. 1.52E-09 M, t1) was 768698, the “HDAC2 activity raw data (signal)” value ([4]; Conc. 1.52E-09 M, t2) was 986775 and the “HDAC2 activity raw data (signal)” value ([4]; Conc. 3.33E-06 M, t1) was 91275. The “HDAC2 activity raw data (signal)” value ([4]; Conc. 3.70E-07 M, t1) was 346891, the “HDAC2 activity raw data (signal)” value ([4]; Conc. 4.12E-08 M, t1) was 680634 and the “HDAC2 activity raw data (signal)” value ([4]; Conc. 4.12E-08 M, t2) was 655155. The “HDAC2 activity raw data (signal)” value ([4]; Conc. 4.57E-09 M, t1) was 833526, the “HDAC2 activity raw data (signal)” value ([4]; Conc. 4.57E-09 M, t2) was 959526 and the “HDAC2 activity raw data (signal)” value ([4]; Conc. 5.08E-10 M, t1) was 761364. For the same compound, the “HDAC2 activity raw data (signal)” value ([4]; Conc. 5.08E-10 M, t2) was 1054303, the IC50 ([6]; Supp. Table 4, rough estimates, for promising hits full measurements, read-out: HDAC2 activity (initial values for HDAC2 IC50)) was 192 nM and the IC50 [6, 8] was 271 nM.
